According to patent US10752581B2, “4-((2-hydroxy-3-methoxybenzyl)amino)benzenesulfonamide derivatives as potent and selective inhibitors of 12-lipoxygenase” (Eastern Virginia Medical School, priority 2013, dated 2020):
Marks after values point to notes of the source that are not given here.

Tests used:
washed human platelets = assay: PAR4-AP-induced calcium mobilization; format: cell-based; details: 200 μM PAR4-AP; increasing concentrations
Procedure: Blood was centrifuged at 200 g for 13 min at room temperature.

[1] = tested on: human primary donor islets; assay: Human Islet (12-HETE Inhibition) Assay; format: cell-based; details: 10 μM
[2] = tested on: FcγRIIa-stimulated platelets; assay: FcγRIIa phosphorylation (immunoprecipitation, Western blot); format: cell-based, human; details: ML355 (20 μM); IV.3+GAM
Procedure: FIGS. 15A-15B show the role of 12-LOX in regulating the FcγRIIa signaling complex. Washed human platelets were pre-treated with ML355 (20 μM) or vehicle control prior to IV.3 and GAM stimulation. (FIG. 15A) Immunoprecipitation of FcγRIIa at 15, 30, and 60 seconds post crosslinking and measured for phosphorylation via Western blot. (FIG. 15B) Platelets were lysed following FcγRIIa cross-linking in the presence of ML355 or DMSO were immunoblotted for active (pY323) and total Syk.
To investigate whether 12-LOX directly regulated FcγRIIa phosphorylation, FcγRIIa was immunoprecipitated from IV.3+GAM-stimulated platelets treated with ML355 or DMSO and immunoblotted for phosphorylation of FcγRIIa.
(§1) FcγRIIa-mediated platelet activation: FcγRIIa-mediated platelet activation was initiated by two distinct models; either 1) FcγRIIa antibody cross-linking or 2) CD9 monoclonal antibody stimulation. To cross-link FcγRIIa, washed platelets were incubated with IV.3, an FcγRIIa mouse monoclonal antibody, for one minute followed by the addition of a goat anti-mouse (GAM) IgG antibody to cross-link FcγRIIa. The concentration of FcγRIIa cross-linking antibodies used for each experiment is indicated in the text. Alternatively, washed human platelets were stimulated with an anti-CD9 monoclonal antibody to activate FcγRIIa mediated signaling. […]

[3] = tested on: FcγRIIa-stimulated platelets; assay: αIIbβ3 activation after FcγRIIa stimulation; format: cell-based, human; details: ML355 pre-treatment; IV.3 + GAM
Source text: (§2) Preparation of washed human platelets: Prior to blood collection written informed consent was obtained from all volunteers. Washed platelets were isolated from the blood of healthy volunteers as previously described (14). Washed platelets were resuspended in tyrodes buffer at 3.0×10^8 platelets/mL unless otherwise indicated.
as §1
Alpha granule release and αIIbβ3 activation: Prior to stimulation, washed platelets were pre-incubated with a either FITC-conjugated P-selectin antibody or FITC-conjugated PAC-1, an antibody specific for the active conformation of αIIb3. […] Fluorescence intensity was measured by flow cytometry. Results are reported as mean fluorescence intensity.

[4] = tested on: FcγRIIa-stimulated platelets; assay: Dense granule secretion (ATP release) after FcγRIIa stimulation; format: cell-based, human; details: compared with DMSO treated platelets
Source text: as §2
as §1, with “signaling. Due to inter-individual variability in anti-CD9 response, a range of anti-CD9 concentration (0.25-1 μg/ml) was used to achieve an aggregation of EC80.” for “signaling.”
Dense granule secretion: ATP release was measured from washed platelets as surrogate for dense granule secretion. […] Platelets were stimulated with FcγRII antibody cross-linking under stirring conditions and fluorescence was measured in real-time using a lumi-aggregometer.

Caco-2 = Caco-2 assay permeability; format: in vitro ADME; details: A→B
[5] = tested on: human donor islet preparations; assay: Glucose-stimulated insulin secretion in human islets; format: cell-based; details: cytokines (TNFα, IL-1β, IFNγ); 3 mM or 18 mM glucose
Procedure: FIGS. 3D and 3E show results from glucose-stimulated insulin secretion in human donor islet preparations in response to 3 mM glucose (Low) or 18 mM glucose (High) for control (untreated) islets. […] FIGS. 3D and 3E represent results obtained in different human donor islet preparations.

[6] = Microsomal stability (mouse); format: in vitro ADME

COc1cccc(CNc2ccc(S(=O)(=O)Nc3nc4ccccc4s3)cc2)c1O [Compound 35, N-(benzo[d]thiazol-2-yl)-4-((2-hydroxy-3-methoxybenzyl)amino)benzenesulfonamide]
PAR4-AP-induced calcium mobilization (in words) (washed human platelets): Calcium mobilization was decreased | AA/IONO-induced 12-HETE production in human islets [1]: significant inhibition of AA/IONO-induced 12-HETE production | FcγRIIa phosphorylation [2]: No difference in FcγRIIa phosphorylation | αIIbβ3 activation [3]: significant attenuated along multiple signaling steps | ATP release (dense granule secretion) [4]: significant decrease in ATP release | permeability (1 × 10^−6 cm/s) (Caco-2): 1.5 (A→B)^a 1 × 10^−6 cm/s | glucose-stimulated insulin secretion with cytokines [5]: Uncoupling of glucose-stimulated insulin secretion by cytokines is inhibited | Microsomal stability T1/2 (min) ([6]; in the presence of NADPH): >300^a min | half-life ([6]; microsomes, read-out: microsomal stability T1/2): > 5 h
